18 molecules from patent US11090319B2, “Therapeutic uses of pharmaceutical compositions comprising cyclic boronic acid ester derivatives” (Melinta Subsidiary Corp., priority 2010, dated 2021) can be followed below.

Assay in all cases: biochemical
Holding throughout (format): biochemical

In test [1] the target is various β-lactamases (bacterial lysates) (Pseudomonas aeruginosa, UniProt P14489). The note with it: AZT IC50 KP1007 OXA-10.
Test [2] concerns the target various β-lactamases (bacterial lysates) (Escherichia coli, UniProt A0A5R8T042). As to conditions: read-out: AZT IC50 KP1009 CTX-M-15.
For test [3], the target named is various β-lactamases (bacterial lysates) (Klebsiella pneumoniae, UniProt Q9F663). The note with it: aztreonam cleavage.
Test [4] deals with various β-lactamases (bacterial lysates) (Klebsiella pneumoniae, UniProt Q9F663, H272Y).
The target in test [5] is various β-lactamases (bacterial lysates) (Salmonella typhimurium, UniProt P0A1V8). As to conditions: AZT IC50 KPX1001 OXA-2.
In test [6] the target is various β-lactamases (bacterial lysates) (Escherichia coli, UniProt A0A649V088). The note with it: read-out: AZT IC50 KP1005 CTX-M-14.
Where [7] appears, read: lysate KP1004 KPC-2, read-out: AZT IC50 KP1004 KPC-2 (converted).
Setting [8] is: lysate KP1008 KPC-2, read-out: AZT IC50 KP1008 KPC-2.

Where two headings read alike, the source gives them in different places.

Chain of various β-lactamases (bacterial lysates) (Escherichia coli, UniProt A0A649V088) (A0A649V088 29-291): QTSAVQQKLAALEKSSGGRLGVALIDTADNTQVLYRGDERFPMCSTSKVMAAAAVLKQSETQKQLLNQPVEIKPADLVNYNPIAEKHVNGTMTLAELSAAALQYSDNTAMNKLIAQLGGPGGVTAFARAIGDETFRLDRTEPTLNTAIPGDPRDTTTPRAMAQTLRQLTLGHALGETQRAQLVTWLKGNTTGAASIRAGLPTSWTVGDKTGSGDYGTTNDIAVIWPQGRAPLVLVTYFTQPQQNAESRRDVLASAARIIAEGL
Chain of various β-lactamases (bacterial lysates) (Pseudomonas aeruginosa, UniProt P14489) (P14489 20-266): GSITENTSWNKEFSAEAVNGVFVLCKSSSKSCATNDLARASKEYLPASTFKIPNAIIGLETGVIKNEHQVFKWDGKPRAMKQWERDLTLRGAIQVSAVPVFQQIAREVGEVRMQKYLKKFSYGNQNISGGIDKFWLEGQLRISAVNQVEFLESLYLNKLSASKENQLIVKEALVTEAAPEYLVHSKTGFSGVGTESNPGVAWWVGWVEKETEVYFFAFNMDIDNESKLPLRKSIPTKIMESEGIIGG
Chain of various β-lactamases (bacterial lysates) (Klebsiella pneumoniae, UniProt Q9F663, H272Y) (Q9F663 whole entry H272Y, looked up): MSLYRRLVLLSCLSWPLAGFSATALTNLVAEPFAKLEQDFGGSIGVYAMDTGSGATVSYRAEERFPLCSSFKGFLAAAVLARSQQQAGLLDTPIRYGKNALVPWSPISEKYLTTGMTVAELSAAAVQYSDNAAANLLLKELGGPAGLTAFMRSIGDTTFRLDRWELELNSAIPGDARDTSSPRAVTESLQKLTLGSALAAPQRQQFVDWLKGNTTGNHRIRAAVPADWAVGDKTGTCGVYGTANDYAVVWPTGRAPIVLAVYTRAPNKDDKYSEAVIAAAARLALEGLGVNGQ
Chain of various β-lactamases (bacterial lysates) (Escherichia coli, UniProt A0A5R8T042) (A0A5R8T042 29-291): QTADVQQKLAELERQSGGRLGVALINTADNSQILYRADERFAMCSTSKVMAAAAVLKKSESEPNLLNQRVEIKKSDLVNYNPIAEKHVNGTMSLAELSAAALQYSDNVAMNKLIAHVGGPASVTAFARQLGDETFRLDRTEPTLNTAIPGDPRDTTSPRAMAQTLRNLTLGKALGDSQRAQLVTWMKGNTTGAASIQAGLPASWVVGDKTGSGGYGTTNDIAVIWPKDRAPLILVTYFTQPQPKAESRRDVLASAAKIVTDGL
Chain of various β-lactamases (bacterial lysates) (Salmonella typhimurium, UniProt P0A1V8) (P0A1V8 22-275): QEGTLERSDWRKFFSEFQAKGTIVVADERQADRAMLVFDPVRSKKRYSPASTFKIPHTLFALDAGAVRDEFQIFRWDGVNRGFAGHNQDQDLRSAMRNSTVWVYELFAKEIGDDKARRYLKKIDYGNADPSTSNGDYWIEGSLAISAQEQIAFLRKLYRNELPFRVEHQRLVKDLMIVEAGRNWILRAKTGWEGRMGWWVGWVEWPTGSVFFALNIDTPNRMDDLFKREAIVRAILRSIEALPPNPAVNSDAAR
Chain of various β-lactamases (bacterial lysates) (Klebsiella pneumoniae, UniProt Q9F663) (Q9F663 whole entry, looked up): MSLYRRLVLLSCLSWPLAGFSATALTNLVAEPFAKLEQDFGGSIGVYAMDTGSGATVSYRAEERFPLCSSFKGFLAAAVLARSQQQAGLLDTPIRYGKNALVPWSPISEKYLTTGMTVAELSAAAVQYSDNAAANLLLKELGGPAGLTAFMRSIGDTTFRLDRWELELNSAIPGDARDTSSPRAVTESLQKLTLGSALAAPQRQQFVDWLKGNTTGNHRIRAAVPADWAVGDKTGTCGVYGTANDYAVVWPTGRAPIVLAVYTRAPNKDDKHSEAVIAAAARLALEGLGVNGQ

Regarding `N[C@H](C(=O)N[C@H]1CC[C@@H](CC(=O)O)OB1O)c1ccccc1` [Compound 33, 2-((3R,6S)-3-((S)-2-amino-2-phenylacetamido)-2-hydroxy-1,2-oxaborinan-6-yl)acetic acid], the IC50 – broadly, the midpoint of a concentration-inhibition curve – in test [1] was more than 6.53 µM; in test [2], more than 6.53 µM; in test [3] (setting [7]), 1.63 to 6.53 µM; in test [3] (setting [8]), 1.63 to 6.53 µM; in test [4], less than 1.63 µM; in test [5], 1.63 to 6.53 µM. The IC50 in test [6] is less than 1.63 µM.
Take `NCCC(=O)N[C@H]1CC[C@@H](CC(=O)O)OB1O` [Compound 34, 2-((3R,6S)-3-(3-aminopropanamido)-2-hydroxy-1,2-oxaborinan-6-yl)acetic acid]: the IC50 in test [1] is more than 8.19 µM; in test [2], more than 8.19 µM; in test [3] (setting [7]), 2.05 to 8.19 µM; in test [3] (setting [8]), 2.05 to 8.19 µM; in test [4], less than 2.05 µM; in test [5], more than 8.19 µM. Moreover, the IC50 in test [6] is more than 8.19 µM.
Turning to `N[C@@H](CCC(=O)N[C@H]1CC[C@@H](CC(=O)O)OB1O)C(=O)O` [Compound 35, (S)-2-amino-5-((3R,6S)-6-(carboxymethyl)-2-hydroxy-1,2-oxaborinan-3-ylamino)-5-oxopentanoic acid], the IC50 in test [1] is more than 6.62 µM; in test [2] it was more than 6.62 µM; in test [3] (setting [7]), more than 6.62 µM; in test [3] (setting [8]) it was more than 6.62 µM; in test [4], less than 1.66 µM; in test [5] it was more than 6.62 µM. Also, the IC50 in test [6] is more than 6.62 µM.
Regarding `O=C(O)C[C@@H]1CC[C@H](NC(=O)CCc2ccccc2)B(O)O1` [Compound 38, 2-((3R,6S)-2-hydroxy-3-(3-phenylpropanamido)-1,2-oxaborinan-6-yl)acetic acid], the IC50 is more than 6.55 µM in test [1]; 1.64 to 6.55 µM in test [2]; less than 1.64 µM in test [3] (setting [7]); less than 1.64 µM in test [3] (setting [8]); less than 1.64 µM in test [4]; 1.64 to 6.55 µM in test [5]. Besides, the IC50 in test [6] is less than 1.64 µM.
For the molecule `CSCCC(N)C(=O)N[C@H]1CC[C@@H](CC(=O)O)OB1O` (stereo partly drawn) [Compound 41, 2-((3R,6S)-3-(2-amino-4-(methylthio)butanamido)-2-hydroxy-1,2-oxaborinan-6-yl)acetic acid], the IC50 is more than 6.58 µM in test [1]; more than 6.58 µM in test [2]; less than 1.64 µM in test [3] (setting [7]); less than 1.64 µM in test [3] (setting [8]); less than 1.64 µM in test [4]; more than 6.58 µM in test [5]. Moreover, the IC50 in test [6] is more than 6.58 µM.
For the molecule `NC(Cc1cccnc1)C(=O)N[C@H]1CC[C@@H](CC(=O)O)OB1O` (stereo partly drawn) [Compound 42, 2-((3R,6S)-3-(2-amino-3-(pyridin-3-yl)propanamido)-2-hydroxy-1,2-oxaborinan-6-yl)acetic acid], the IC50 in test [1] was more than 6.23 µM; in test [2], more than 6.23 µM; in test [3] (setting [7]) it was less than 1.56 µM; in test [3] (setting [8]), less than 1.56 µM; in test [4], less than 1.56 µM; in test [5], more than 6.23 µM. Also, the IC50 in test [6] is more than 6.23 µM.
As for `O=C(O)C[C@@H]1CC[C@H](NC(=O)Cc2cccnc2)B(O)O1` [Compound 43, 2-((3R,6S)-2-hydroxy-3-(2-(pyridin-3-yl)acetamido)-1,2-oxaborinan-6-yl)acetic acid], the IC50 in test [1] was more than 6.85 µM; in test [2] it was more than 6.85 µM; in test [3] (setting [7]) it was less than 1.71 µM; in test [3] (setting [8]) it was less than 1.71 µM; in test [4], less than 1.71 µM; in test [5], 1.71 to 6.85 µM. Besides, the IC50 in test [6] was in the range of 1.71 to 6.85 µM.
Take `O=C(O)C[C@@H]1CC[C@H](NC(=O)[C@@H]2CCCCN2)B(O)O1` [Compound 45, 2-((3R,6S)-2-hydroxy-3-((S)-piperidine-2-carboxamido)-1,2-oxaborinan-6-yl)acetic acid]: the IC50 is more than 7.04 µM in test [1]; more than 7.04 µM in test [2]; 1.76 to 7.04 µM in test [3] (setting [7]); 1.76 to 7.04 µM in test [3] (setting [8]); less than 1.76 µM in test [4]; more than 7.04 µM in test [5]. Moreover, the IC50 in test [6] is more than 7.04 µM.
Turning to `O=C(O)C[C@@H]1CC[C@H](NC(=O)[C@H]2Cc3ccccc3CN2)B(O)O1` [Compound 46, 2-((3R,6S)-2-hydroxy-3-((R)-1,2,3,4-tetrahydroisoquinoline-3-carboxamido)-1,2-oxaborinan-6-yl)acetic acid], the IC50 in test [1] was more than 6.02 µM; in test [2] it was more than 6.02 µM; in test [3] (setting [7]) it was less than 1.51 µM; in test [3] (setting [8]) it was less than 1.51 µM; in test [4], less than 1.51 µM; in test [5], more than 6.02 µM. In test [6], the IC50 was more than 6.02 µM.
Take `N=C(N)NCCC[C@@H](N)C(=O)N[C@H]1CC[C@@H](CC(=O)O)OB1O` [Compound 47, 2-((3R,6S)-3-((R)-2-amino-5-guanidinopentanamido)-2-hydroxy-1,2-oxaborinan-6-yl)acetic acid]: the IC50 was more than 6.08 µM in test [1]; more than 6.08 µM in test [2]; 1.52 to 6.08 µM in test [3] (setting [7]); 1.52 to 6.08 µM in test [3] (setting [8]); less than 1.52 µM in test [4]; more than 6.08 µM in test [5]. Further, the 50% inhibitory concentration (IC50) in test [6] was more than 6.08 µM.
Regarding `O=C(O)C[C@@H]1CC[C@H](NC(=O)Cc2ccncc2)B(O)O1` [Compound 49, 2-((3R,6S)-2-hydroxy-3-(2-(pyridin-4-yl)acetamido)-1,2-oxaborinan-6-yl)acetic acid], the IC50 in test [1] was more than 6.85 µM; in test [2], more than 6.85 µM; in test [3] (setting [7]), less than 1.71 µM; in test [3] (setting [8]) it was less than 1.71 µM; in test [4], less than 1.71 µM; in test [5], 1.71 to 6.85 µM. For the same molecule, the IC50 in test [6] lay within 1.71 to 6.85 µM.
Consider `N[C@H]1CC[C@@H](CC(=O)N[C@H]2CC[C@@H](CC(=O)O)OB2O)CC1` [Compound 50, 2-((3R,6S)-3-(2-(4-aminocyclohexyl)acetamido)-2-hydroxy-1,2-oxaborinan-6-yl)acetic acid], for which the IC50 is more than 6.41 µM in test [1]; more than 6.41 µM in test [2]; less than 1.6 µM in test [3] (setting [7]); less than 1.6 µM in test [3] (setting [8]); less than 1.6 µM in test [4]; more than 6.41 µM in test [5]. In test [6], the IC50 is 1.6 to 6.41 µM.
For the molecule `O=C(O)C[C@@H]1CC[C@H](NC(=O)C[C@H]2CCCCN2)B(O)O1` [Compound 52, 2-((3R,6S)-2-hydroxy-3-(2-((R)-piperidin-2-yl)acetamido)-1,2-oxaborinan-6-yl)acetic acid], the IC50 in test [1] is more than 6.71 µM; in test [2], more than 6.71 µM; in test [3] (setting [7]), less than 1.68 µM; in test [3] (setting [8]), 1.68 to 6.71 µM; in test [4] it was 1.68 to 6.71 µM; in test [5], more than 6.71 µM. Moreover, the IC50 in test [6] is more than 6.71 µM.
For the molecule `O=C(O)C[C@@H]1CC[C@H](NC(=O)C[C@@H]2CCCCN2)B(O)O1` [Compound 53, 2-((3R,6S)-2-hydroxy-3-(2-((S)-piperidin-2-yl)acetamido)-1,2-oxaborinan-6-yl)acetic acid], the IC50 in test [1] is more than 6.71 µM; in test [2], more than 6.71 µM; in test [3] (setting [7]) it was less than 1.68 µM; in test [3] (setting [8]), 1.68 to 6.71 µM; in test [4], 1.68 to 6.71 µM; in test [5] it was 1.68 to 6.71 µM. For the same molecule, in test [6], the IC50 was more than 6.71 µM.
Regarding `Cc1nc2ccccc2n1CCC(=O)N[C@H]1CC[C@@H](CC(=O)O)OB1O` [Compound 55, 2-((3R,6S)-2-hydroxy-3-(3-(2-methyl-1H-benzo[d]imidazol-1-yl)propanamido)-1,2-oxaborinan-6-yl)acetic acid], the IC50 in test [1] is more than 5.57 µM; in test [2], more than 5.57 µM; in test [3] (setting [7]), less than 1.39 µM; in test [3] (setting [8]), less than 1.39 µM; in test [4] it was less than 1.39 µM; in test [5], 1.39 to 5.57 µM. For the same molecule, the IC50 in test [6] fell in the range of 1.39 to 5.57 µM.
For the molecule `O=C(O)C[C@@H]1CC[C@H](NC(=O)c2ccc(Cn3cnnn3)cc2)B(O)O1` [Compound 56, 2-((3R,6S)-3-(4-((1H-tetrazol-1-yl)methyl)benzamido)-2-hydroxy-1,2-oxaborinan-6-yl)acetic acid], the IC50 was more than 5.57 µM in test [1]; 1.39 to 5.57 µM in test [2]; less than 1.39 µM in test [3] (setting [7]); less than 1.39 µM in test [3] (setting [8]); less than 1.39 µM in test [4]; 1.39 to 5.57 µM in test [5]. Further, the IC50 in test [6] was less than 1.39 µM.
For the molecule `O=C(O)C[C@@H]1CC[C@H](NC(=O)Cc2ccccn2)B(O)O1` [Compound 57, 2-((3R,6S)-2-hydroxy-3-(2-(pyridin-2-yl)acetamido)-1,2-oxaborinan-6-yl)acetic acid], the 50% inhibitory concentration (IC50) in test [1] was more than 6.85 µM; in test [2] it was more than 6.85 µM; in test [3] (setting [7]), less than 1.71 µM; in test [3] (setting [8]), less than 1.71 µM; in test [4] it was less than 1.71 µM; in test [5], more than 6.85 µM. Also, the IC50 in test [6] is less than 1.71 µM.
Regarding `O=C(O)C[C@@H]1CC[C@H](NC(=O)c2cn(C3CC3)c3cc(N4CCNCC4)c(F)cc3c2=O)B(O)O1` [Compound 58, 2-((3R,6S)-3-(1-cyclopropyl-6-fluoro-4-oxo-7-(piperazin-1-yl)-1,4-dihydroquinoline-3-carboxamido)-2-hydroxy-1,2-oxaborinan-6-yl)acetic acid], the IC50 was more than 4.11 µM in test [1]; more than 4.11 µM in test [2]; less than 1.03 µM in test [3] (setting [7]); less than 1.03 µM in test [3] (setting [8]); less than 1.03 µM in test [4]; more than 4.11 µM in test [5]. Moreover, the IC50 in test [6] lay within 1.03 to 4.11 µM.
